Results on 3 compounds are retold here after patent US6664241B2, “Water-soluble amide derivatives of polyene macrolides and preparation and uses thereof” (Micrologix Biotech Inc., priority 2000, dated 2003).

Converted amounts (≈) assume the structure as drawn. Where two headings read alike, the source gives them in different places.

Data set [1] can be described thus: Maximum non-lethal dose (NLD), single intravenous dose in mice. Format: in vivo, Swiss-Webster male mice. To be noted: test compounds as aspartate salts in 5% mannitol, AmB as FUNGIZONE
The protocol:
(§1) A variety of the compounds synthesized as described in Section 5, supra, were tested in various in vivo assays, as described below. The results of the various assays are provided in TABLE 3, presented at the end of this section. In all of the in vivo assays described, the test compounds, in the form of the aspartate salts, were formulated in an aqueous vehicle (5% mannitol in sterile water; OSMITROL, Baxter Healthcare, Deerfield, Ill.), followed by appropriate dilutions. The formulations were prepared fresh before dosing.
(§2) AmB and AME were also tested for comparison. For AmB, the commercially available FUNGIZONE (Bristol-Meyers Squibb Co.) was used. Reported values are based upon the weight of the AmB active ingredient, not on the basis of the weight of the FUNGIZONE powder. AME was formulated in OSMITROL as described for the test compounds.
Maximum non-lethal dose (NLD) data were obtained for selected compounds. A single intravenous dose was administered to each of four mice (Swiss-Webster male mice; Simonsen Laboratories, Gilroy, Calif.) in several groups. The doses selected were based upon the NLDs of compounds of similar structures. After review of findings, higher or lower doses were administered and a NLD was determined. The results are tabulated in TABLE 3, below (NLD Acute Mice). The values for AmB and AME are provided for comparison

In data set [2] the test system is C. albicans. As to the kind of experiment: 7 day kidney bioburden evaluation in neutropenic mice challenged with C. albicans. Particulars: intraperitoneally once daily for 7 days, 50% of animals with 2 log10 reduction in kidney CFU; for ED50: Candida albicans, ip, 168 h. Format: in vivo, Swiss-Webster mice. How it is done: as §1, §2
Various polyene macrolide amide derivatives of the invention were evaluated for their protective effect when administered intraperitoneally once daily for 7 days to neutropenic mice challenged with live C. albicans.
Swiss-Webster mice (Simonsen Laboratories, Gilroy, Calif.) were made neutropenic by intravenous administration of 5-fluorouracil (150 mg/kg) on study day −1. On study day 0, all mice received by intravenous injection a single inoculum (0.2 mL) containing as estimated 5.0×10^4 CFU of C. albicans. The day of inoculation was designated as study day 0. Beginning the day after infection (on study day 1), mice were treated intraperitoneally with vehicle alone or formulated test compound, once daily for 7 consecutive days.
(§3) The mice were observed daily from study day 1 through study day 8 (1 day after the last dose). Mice found dead or euthanized in extremis were removed from the study without further processing. Surviving mice were euthanized by inhalation of CO2 on study day 8 and both kidneys from each mouse were removed. Each pair of removed kidneys was homogenized in 3 mL of ice-cold PBS containing 10% glycerol. A portion of each homogenate was used to determine log10 CFU per kidney using SDA plates (48 hours of incubation at 30° C.). Kidney log10 CFU data were analyzed using a t-test. The criterion for a statistically significant response was set at p<0.01.
(§4) For comparison, the results for AmB and AME are also provided. Efficacy was defined for individual animals as a greater than 2 log10 reduction in kidney CFU relative to the mean vehicle control value.

For data set [3] the following is noted: human, in vivo; cited from earlier work.
Data set [4] is described as follows: Two week range-finding toxicity study in mice. Particulars: for NOAEL at 2 week: both sexes, CD-1, mouse, in vivo, iv. Format: in vivo, CD-1 mice. How it is done:
as §1, §2
Various polyene macrolide amide derivatives of the invention were evaluated to characterize their potential toxicity when administered subchronically by intravenous injection.
CD-1® mice (Charles River Laboratories, Portage, Mich.) were acclimated to laboratory conditions for at least 5 days before the start of dosing. During the acclimation period, the general condition of the mice was evaluated, and those considered healthy were used. The mice were randomly assigned to treatment groups using a stratified body weight regimen. Each treatment group consisted of 3 male and 3 female mice. The mice were housed in a room with a controlled environment and provided rodent chow and water ad libitum.
On the first day of dosing, the mice were approximately 7 to 9 weeks old and weighed 22 to 30 g. Doses were administered by intravenous injection once daily on study days 1 to 5 and 8 to 12. Dosages were selected based upon data from efficacy and toxicology studies, and ranged from 1.25 to 30 mg/kg/day. Clinical observations were recorded 0.5 hr after dosing on days 1, 3, 5, 8, 10, 12 and 15, and on any day a change was observed. Body weights were recorded prior to dosing and on study days 8 and 12, and on study day 15 at the completion of the in-life phase of the study.
Animals that were found in a moribund/deteriorating clinical state were euthanized (animal designated killed in extremis) by inhalation of CO2. The day of death for any animal found dead or killed in extremis was recorded. Any animal that died prematurely was removed from the study without further processing.
One day after completion of dosing (study day 16), all surviving mice were euthanized by inhalation of CO2. Their kidneys were preserved for histopathologic examination. The maximum no-observed-adverse-effect level (NOAEL) was determined on the basis of clinical and histopathologic findings. The values for AmB and AME are provided for comparison.

For data set [5] the following is noted: rats; cited from earlier work.
The conditions of data set [6]: dogs; cited from earlier work.
Data set [7] relates to C. albicans. As to the kind of experiment: Minimum Inhibitory Concentrations (MICs) against C. albicans, NCCLS M27-A broth dilution. Format: cell-based. How it is done:
For each compound synthesized, Minimum Inhibitory Concentrations (MICs) against C. albicans were determined as described in Reference Method for Broth Dilution Antifungal Susceptibility Testing of Yeasts, Approved Standard, NCCLS document M27-A (ISBN 1-56238-328-0), NCCLS, 940 West Valley Road, Suite 1400, Wayne, Pa. 19087, 1997.

Data set [8] deals with C. albicans. As to the kind of experiment: 5 day kidney bioburden evaluation in immunocompetent mice challenged with C. albicans. Format: in vivo, Swiss-Webster mice. To be noted: intraperitoneally once daily for 5 days, immunocompetent mice, C. albicans, 50% of animals with 2 log10 reduction in kidney CFU; for ED50: Candida albicans, ip, 120 h, read-out: ED50 mice 5 day. The protocol: as §1, §2
Various polyene macrolide amide derivatives of the invention were evaluated for their protective effect when administered intraperitoneally once daily for 5 days to immunocompetent mice challenged with live C. albicans.
C. albicans was grown on Sabouraud dextrose agar (SDA) plates for 48 hr. Colonies were harvested and washed twice by centrifugation in phosphate-buffered saline (PBS). The washed pellets were resuspended in PBS and diluted to achieve the desired number of fungi per milliliter. A portion of the inoculum was plated on SDA plates to determine the colony-forming units (CFU) per milliliter.
Swiss-Webster mice (Simonsen Laboratories, Gilroy, Calif.) were administered by intravenous injection a single inoculum (0.2 mL) containing as estimated 2.0×10^5 CFU of C. albicans. The day of inoculation was designated as study day 0. Beginning three days after injection, mice were treated intraperitoneally with vehicle alone or formulated test compound once daily for 5 consecutive days.
as §3, with “day 0” for “day 1”, “day 10 (3 days” for “day 8 (1 day”, “day 10” for “day 8”
as §4

A short description of data set [9]: Ascending single-dose nephrotoxicity study in rabbits. The class given is in vivo, Female New Zealand white rabbits. To be noted: ascending single intravenous infusion doses, urine volume, BUN, creatinine. How it is done:
as §1
AmB and AME were also tested for comparison. For AmB, the commercially available FUNGIZONE (Bristol-Meyers Squibb Co.) was used. […]
Various polyene macrolide amide derivatives of the invention were evaluated to determine the intravenous dose of administered compound that produces nephrotoxicity in rabbits. Nephrotoxicity was monitored by measuring urine volume and blood urine nitrogen (BUN) and creatinine. […]
Ascending single doses were administered by intravenous infusion into an ear vein at a rate of 0.6 mL/min. […] Body weights were recorded before each dose, as well as 2 days after the last dose. Blood samples were collected from the rabbits two days prior to the first dose (study day −2) and approximately 24 hr after each dose and analyzed for BUN and creatinine. […]

The mark [10] stands for this setting: Candida albicans, read-out: MIC.

As to `COC(=O)[C@H]1[C@@H]2C[C@@H](O[C@@H]3O[C@H](C)[C@@H](O)[C@H](N)[C@@H]3O)/C=C/C=C/C=C/C=C/C=C/C=C/C=C/[C@H](C)[C@@H](O)[C@@H](C)[C@H](C)OC(=O)C[C@H](O)C[C@H](O)CC[C@@H](O)[C@H](O)C[C@H](O)C[C@](O)(C[C@@H]1O)O2` [AME, amphotericin B methyl ester, reference compound], the NLD acute mice in [1] turned out to be 60 mg/kg. Also, the “ED50 mice 7 day” value with C. albicans [2] is on record as 8.3 mg/kg. The “adverse effects in clinical trial” value in data set [3] was “many patients developed progressive neurological dysfunction associated with white matter degeneration”. Moreover, in [4] (intravenous once daily on days 1 to 5 and 8 to 12, clinical findings), the “NOAEL 2 week mice clinical” value was above 32 mg/kg. Moreover, the “NOAEL 2 week mice histological” value in data set [4] (intravenous once daily on days 1 to 5 and 8 to 12, histopathologic (kidney) findings) is reported as above 32 mg/kg. In addition, the “acute, nephro- and hepato-toxicity versus amphotericin B” value was “lower acute, nephro- and hepato-toxicity than amphotericin B” in data set [5]; “lower acute, nephro- and hepato-toxicity than amphotericin B” in data set [6]. For the same compound, the MIC (in general, the smallest concentration in the dilution series that meets the test's criterion for growth inhibition) against C. albicans [7] was determined as 0.75 µg/mL (≈ 0.799 µM). Besides, the “ED50 mice 5 day” value in the data set with C. albicans [8] was 13.1 mg/kg. The NOAEL acute rabbit in [9] amounted to 7.5 mg/kg.

For `CC1[C@H](C)OC(=O)C[C@H](O)C[C@H](O)CC[C@@H](O)[C@H](O)C[C@H](O)C[C@]2(O)C[C@H](O)C(C(=O)NCCCN3CCOCC3)C(C[C@@H](OC3O[C@H](C)[C@@H](O)[C@H](NC[C@@]4(O)OC[C@@H](O)[C@@H](O)[C@@H]4O)[C@@H]3O)/C=C/C=C/C=C/C=C/C=C/C=C/C=C/[C@H](C)[C@H]1O)O2` (stereo partly shown) [Compound 104], in data set [1], the NLD acute mice is 20 mg/kg. Moreover, the ED50 (usually the midpoint of the dose-response relation) in the data set with C. albicans [2] turned out to be 3.1 mg/kg; with C. albicans [8], 9 mg/kg. The results for the NOAEL at 2 week in data set [4] (NOAEL 2 week mice clinical) and in [4] (NOAEL 2 week mice histological) were 10 mg/kg and below 10 mg/kg, respectively. In addition, in the data set with C. albicans [7] (setting [10]), the MIC amounted to 2 µg/mL (≈ 1.65 µM).

Turning to `CC1[C@H](C)OC(=O)C[C@H](O)C[C@H](O)CC[C@@H](O)[C@H](O)C[C@H](O)C[C@]2(O)C[C@H](O)C(C(=O)NCCN3CCCCC3)C(C[C@@H](OC3O[C@H](C)[C@@H](O)[C@H](NC[C@@]4(O)OC[C@@H](O)[C@H](O)[C@@H]4O)[C@@H]3O)/C=C/C=C/C=C/C=C/C=C/C=C/C=C/[C@H](C)[C@H]1O)O2` (stereo partly shown) [Compound 114], the NLD acute mice in data set [1] is listed as 40 mg/kg. Also, the results for the ED50 in the data set on C. albicans [2] and in the data set on C. albicans [8] were 6.1 mg/kg and 9 mg/kg, respectively. In addition, the NOAEL at 2 week in data set [4] (NOAEL 2 week mice clinical) and in [4] (NOAEL 2 week mice histological) was 9 mg/kg in each case. In addition, the MIC in the data set on C. albicans [7] (setting [10]) worked out at 4 µg/mL (≈ 3.34 µM).
